Measurements reported in patent US10213415B2, “Compounds as opioid receptor modulators” (JANSSEN PHARMACEUTICA NV, priority 2004, dated 2019).
Read-outs that look alike come from different tables or passages of the source.

Tests used:
[1] = molecular target: T1, delta opioid receptor (CHO-hδ cell membranes) (Homo sapiens, UniProt P41143); assay: Delta Opioid Receptor Functional Assay: [35S]GTPγS Binding in CHO-hδ Cell Membranes, Version 1; type: biochemical; conditions: read-out: DOR GTP-binding Assay_v1 EC50
T1 construct: purchased Receptor Biology, Inc. (Baltimore, Md.); host or cells: CHO cells (recombinant expression)
Method: CHO-hδ cell membranes were purchased from Receptor Biology, Inc. (Baltimore, Md.). 10 mg/ml of membrane protein suspended in 10 mM TRIS-HC pH 7.2, 2 mM EDTA, 10% sucrose.
Membranes were maintained at 4-8° C. A portion (1 ml) of membranes was added into 15 mL cold binding assay buffer. The assay buffer contained 50 mM HEPES, pH 7.6, 5 mM MgCl2, 100 mM NaCl, 1 mM DTT and 1 mM EDTA. The membrane suspension was homogenized with a Polytron for 2 times and centrifuged at 3000 rpm for 10 min. The supernent was then centrifuged at 18,000 rpm for 20 min. The pellet was saved in a tube and 10 ml assay buffer was added into the tube. The pellet and buffer were mixed with a Polytron.
The pellet membranes (20 μg/ml) were preincubated with SPA (10 mg/ml) at 25° C. for 45 min in the assay buffer. The SPA (5 mg/ml) coupled with membranes (10 μg/ml) was then incubated with 0.5 nM [^35S]GTPγS in the same HEPES buffer containing 50 μM GDP in total volume of 200 μl. Increasing concentrations of receptor agonists were used to stimulate [^35S]GTPγS binding. The basal binding was tested in the absent agonists and no specific binding was tested in the present 10 μM unlabeled GTPγS. The data were analyzed on a Top counter.
Data The % of Basal=(stimulate−non specific)*100/(basal−non specific). EC50 values were calculated using a Prism program.

[2] = molecular target: T2, mu opioid receptor (CHO-hMOR cell membranes) (Homo sapiens, UniProt P35372); assay: Mu Opioid Receptor Functional Assay: [35S]GTPγS Binding in CHO-hMOR Cell Membranes, Versions 1 and 2; type: biochemical; conditions: for MOR GTP binding assay_v1 (% I): version 1, % inhibition of agonist-stimulated GTPγS binding; for MOR GTP assay_v1 % of Basal: version 1, basal binding = 100%; for MOR GTP binding assay_v2 (% I): version 2, % inhibition of agonist-stimulated GTPγS binding; for EC50: version 2, read-out: MOR GTP binding assay v2 EC50
T2 construct: purchased Receptor Biology, Inc. (Baltimore, Md.); host or cells: CHO cells (recombinant expression)
Summary of the method: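 Agonist-stimulated [35S]GTPγS (0.5 nM) binding measured by SPA in human MOR CHO membranes, buffer pH 7.6 with 100 mM NaCl, 5 mM MgCl2. Antagonist mode: % inhibition of stimulation by 1 μM SNC80; agonist mode: EC50 fitted. Basal binding without agonist, non-specific with 10 μM cold GTPγS.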

[3] = test system: novel environment-stressed mice; assay: In Vivo Assay-Stress-Induced Fecal Output (Fecal Output for 1 hr); set-up: species or system mouse; conditions: for Fecal Output (# pellets) cpd / response vs control in vivo at 30 mg/kg: 30 mg/kg oral, 1 hr; for Fecal Output (# pellets) cpd: novel environment-stressed mice; for response vs control in vivo at 30 mg/kg: Mus musculus, po, 1 h
Summary of the method: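 Adult male Crl:CD-1(ICR) mice (˜30-35 g; at least 10 per dose group) were split into acclimated non-stressed controls, held individually for 16-18 hr in wire-mesh-bottom cages, and non-acclimated stressed groups. Mice were dosed intragastrically with vehicle or test compound in 0.5% methylcellulose, housed individually in novel cages over absorbent cardboard, and fecal pellets per mouse were counted hourly.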

[4] = relative to acclimated control, read-out: Fecal Output cpd % control
[5] = relative to novel environment stress (NES) vehicle group, read-out: Fecal Output cpd % NES

T1 sequence (P41143 whole entry): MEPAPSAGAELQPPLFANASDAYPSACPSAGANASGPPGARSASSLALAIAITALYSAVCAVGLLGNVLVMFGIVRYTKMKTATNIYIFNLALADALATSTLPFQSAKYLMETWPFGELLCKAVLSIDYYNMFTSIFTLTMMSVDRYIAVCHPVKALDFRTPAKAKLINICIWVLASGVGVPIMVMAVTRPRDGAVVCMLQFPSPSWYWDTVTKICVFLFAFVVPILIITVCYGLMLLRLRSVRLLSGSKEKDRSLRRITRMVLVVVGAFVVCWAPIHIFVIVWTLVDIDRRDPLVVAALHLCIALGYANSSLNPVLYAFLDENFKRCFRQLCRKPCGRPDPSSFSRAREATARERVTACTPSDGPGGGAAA
T2 sequence (P35372 whole entry): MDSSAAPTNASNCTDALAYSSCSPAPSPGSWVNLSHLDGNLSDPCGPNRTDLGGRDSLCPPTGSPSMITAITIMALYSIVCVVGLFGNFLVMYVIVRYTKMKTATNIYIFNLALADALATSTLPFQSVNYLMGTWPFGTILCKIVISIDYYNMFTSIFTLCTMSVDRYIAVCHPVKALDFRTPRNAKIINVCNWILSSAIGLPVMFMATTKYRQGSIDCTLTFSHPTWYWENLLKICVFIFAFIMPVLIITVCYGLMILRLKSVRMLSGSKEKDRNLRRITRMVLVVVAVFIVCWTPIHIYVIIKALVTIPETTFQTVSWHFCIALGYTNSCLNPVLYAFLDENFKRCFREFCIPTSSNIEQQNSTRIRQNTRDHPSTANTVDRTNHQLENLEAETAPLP

| Compound | EC50 [1] | MOR GTP binding assay_v1 (% I) [2] | MOR GTP binding assay_v2 (% I) [2] | EC50 [2] | further results |
| --- | --- | --- | --- | --- | --- |
| Cc1cc(O)cc(C)c1C[C@H](N)C(=O)N(Cc1ccccc1)[C@@H](C)c1nc(-c2ccccc2)c[nH]1 [Cpd 218] | 0.02 µM | 1.00% | – | – | MOR GTP assay_v1 % of Basal [2]: 599.00%; Fecal Output (# pellets) cpd [3]: 3.7 pellets; response vs control in vivo at 30 mg/kg [3, 4]: 138%; response vs control in vivo at 30 mg/kg [3, 5]: 35.4% |
| COc1ccc(CN(C(=O)[C@@H](N)Cc2c(C)cc(O)cc2C)[C@@H](C)c2nc(-c3ccccc3)c[nH]2)cc1C(=O)O [Cpd 260] | – | – | 2.89% | 0.0015 µM | – |
| COc1ccc(CN(Cc2nc(-c3ccccc3)c[nH]2)C(=O)[C@@H](N)Cc2ccc(C(N)=O)cc2)cc1C(=O)O [Cpd 5] | – | – | 7.87% | 0.071 µM | – |
| COC(=O)c1cc(CN(C(=O)[C@@H](N)Cc2c(C)cc(C(N)=O)cc2C)[C@@H](C)c2nc(-c3ccccc3)c[nH]2)ccc1OC [Cpd 17] | – | – | 8.71% | 0.0025 µM | – |
| Cc1cc(O)cc(C)c1C[C@H](N)C(=O)N(Cc1cccc(C(=O)O)c1)[C@@H](C)c1nc(-c2ccccc2)c[nH]1 [Cpd 48] | – | – | 24.53% | 0.0022 µM | – |
| Cc1cc(O)cc(C)c1C[C@H](N)C(=O)N(Cc1ccnc2ccccc12)[C@@H](C)c1nc(-c2ccccc2)c[nH]1 [Cpd 246] | – | – | 21.30% | 0.0045 µM | – |
| Cc1cc(C(N)=O)cc(C)c1C[C@H](N)C(=O)N(Cc1ccc(C(=O)O)cc1)[C@@H](C)c1nc(-c2ccccc2)c[nH]1 [Cpd 50] | – | – | – | – | Fecal Output (# pellets) cpd [3]: 3.3 pellets; response vs control in vivo at 30 mg/kg [3, 4]: 144%; response vs control in vivo at 30 mg/kg [3, 5]: 47.1% |
| COc1ccc(CN(C(=O)[C@@H](N)Cc2c(C)cc(C(N)=O)cc2C)[C@@H](C)c2nc(-c3ccccc3)c[nH]2)cc1OC [Cpd 75] | – | – | – | – | Fecal pellet output, Compound (% control) 3.0 ([3]; dose 3.0, oral, NES mice, vs acclimated control): 223.8 % control; Fecal pellet output, Compound (% control) 10.0 ([3]; dose 10.0, oral, NES mice, vs acclimated control): 188.1 % control; Fecal pellet output, Compound (% control) 30.0 ([3]; dose 30.0, oral, NES mice, vs acclimated control): 100 % control |
| COC(=O)c1ccc(CN(C(=O)[C@@H](N)Cc2ccc(C(N)=O)cc2)[C@@H](C)c2nc(-c3ccccc3)c[nH]2)o1 [Cpd 303] | – | – | 1.00% | 0.03 µM | – |
| C[C@H](c1nc(-c2ccccc2)c[nH]1)N(Cc1ccccc1)C(=O)[C@@H](N)Cc1ccc(O)cc1 [Cpd 221] | 0.308 µM | 13.00% | – | – | MOR GTP assay_v1 % of Basal [2]: 427.00% |
| Cc1ccccc1-c1nc(CN(C(=O)[C@@H](N)Cc2c(C)cc(O)cc2C)C(C)C)[nH]c1C [Cpd 165] | 0.231 µM | 1.00% | – | – | – |
| Cc1cc(O)cc(C)c1C[C@H](N)C(=O)N(Cc1nc(-c2cc(C(F)(F)F)cc(C(F)(F)F)c2)c(C)[nH]1)C(C)C [Cpd 164] | 2.5 µM | 1.00% | – | – | – |
| Cc1cc(C(N)=O)cc(C)c1C[C@H](N)C(=O)N(Cc1cccc(C(=O)O)c1)[C@@H](C)c1nc(-c2ccccc2)c[nH]1 [Cpd 227] | – | – | 36.00% | 0.0608 µM | – |
| CCN(C(=O)[C@@H](N)Cc1ccc(O)cc1)[C@H](C)c1nc(-c2ccccc2)c[nH]1 [Cpd 214] | 26 µM | 3.00% | – | – | MOR GTP assay_v1 % of Basal [2]: 295.00% |
